Among the test systems are BT-549 breast; CCRF-CEM leukemia; NCI/ADR-RES ovarian; T-47D breast; TK-10 renal.
Experiment in all cases: NCI anticancer screen, dose series, 48 h

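Following 48 hours of exposure in 96-well plates, responses at five concentrations were used to interpolate endpoints linearly. At the GI50, growth is halved. TGI is the concentration that stops growth completely.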

In the case of `Cc1nnc(Nc2ccc(NC(=O)Nc3ccc(Cl)cc3)cc2)c2ccccc12`, the GI50 with BT-549 breast is 2.21 µM; in the experiment on CCRF-CEM leukemia, 2.38 µM; in the experiment with NCI/ADR-RES ovarian, 3.63 µM; in the experiment on T-47D breast it was 2.06 µM; with TK-10 renal it was 3.19 µM. In addition, the TGI in the experiment with BT-549 breast worked out at 5.56 µM; in the experiment on CCRF-CEM leukemia, 5.99 µM; with NCI/ADR-RES ovarian, 14.9 µM; in the experiment with T-47D breast, 5.08 µM; in the experiment with TK-10 renal, 9.42 µM.

Regarding `O=C(NC[C@H](O)CN1CCc2ccccc2C1)c1cc(NC2COC2)ncn1`, the GI50 in the experiment with BT-549 breast was 7.24 µM; in the experiment with CCRF-CEM leukemia, 26.9 µM; with NCI/ADR-RES ovarian it was 15.9 µM; in the experiment with T-47D breast, 9.26 µM; in the experiment on TK-10 renal it was 22 µM. Further, the TGI in the experiment with BT-549 breast was 35.4 µM; in the experiment on CCRF-CEM leukemia, over 100 µM; in the experiment with NCI/ADR-RES ovarian, 57.9 µM; with T-47D breast it was over 100 µM; in the experiment with TK-10 renal, 88.9 µM.

Regarding `O=C(Nc1ccc(Br)cc1F)c1cc(Cl)ccc1O`, the GI50 with BT-549 breast was 0.44 µM; with CCRF-CEM leukemia, 2.08 µM; in the experiment on NCI/ADR-RES ovarian it was 0.749 µM; in the experiment with T-47D breast, 0.466 µM; with TK-10 renal, 3.5 µM. The TGI with BT-549 breast is 2.1 µM; in the experiment with CCRF-CEM leukemia it was 7.63 µM; with NCI/ADR-RES ovarian, 5.67 µM; in the experiment on T-47D breast, 4.83 µM; in the experiment with TK-10 renal it was 10.2 µM.

`Cc1nc(N)sc1N=Nc1ccccc1Br`: the TGI with BT-549 breast is 46.4 µM; in the experiment with CCRF-CEM leukemia, over 100 µM; with NCI/ADR-RES ovarian it was 72.5 µM; in the experiment with T-47D breast it was 57.2 µM; in the experiment with TK-10 renal, 70.4 µM.

Turning to `N#Cc1nn(-c2cc(=O)[nH]c3ccc(Cl)cc23)c(N)c1C#N`, the GI50 in the experiment with BT-549 breast is over 100 µM; in the experiment on CCRF-CEM leukemia it was over 100 µM; with NCI/ADR-RES ovarian it was over 100 µM; in the experiment on T-47D breast, 38.9 µM; with TK-10 renal, over 100 µM. Also, the TGI in the experiment on BT-549 breast, with CCRF-CEM leukemia, in the experiment with NCI/ADR-RES ovarian, in the experiment with T-47D breast and in the experiment on TK-10 renal was over 100 µM in each case.

Turning to `CC1CC2CCCC(O)=C2C(=O)O1` (configuration not stated), the TGI in the experiment with BT-549 breast, in the experiment on CCRF-CEM leukemia, in the experiment on NCI/ADR-RES ovarian, in the experiment on T-47D breast and with TK-10 renal was over 100 µM in each case.

On to `CC1(C)OC2C(CO[Si](C)(C)C(C)(C)C)OC(n3c(I)c(C#C[Si](C)(C)C)c(=O)[nH]c3=O)C2O1` (configuration not stated), for which the GI50 was 13.2 µM in the experiment on BT-549 breast; 2.67 µM in the experiment on CCRF-CEM leukemia; 20.4 µM in the experiment on NCI/ADR-RES ovarian; 10.5 µM with T-47D breast; 6.44 µM with TK-10 renal. Besides, the TGI was 32.1 µM in the experiment with BT-549 breast; 11 µM in the experiment on CCRF-CEM leukemia; 58.3 µM with NCI/ADR-RES ovarian; 26.4 µM with T-47D breast; 20 µM in the experiment with TK-10 renal.

Turning to `Nc1ncn([C@@H]2O[C@H](CO)[C@@H](O)[C@H]2O)c(=O)n1`, in the experiment on CCRF-CEM leukemia, the GI50 was 1.95 µM and the TGI is over 100 µM. Besides, in the experiment with NCI/ADR-RES ovarian, the GI50 is 1.2 µM and the TGI came out at 10.6 µM.

For the compound `COc1ccc(-c2nnc3n(C)c(=O)c4ccccc4n23)cc1N`, the GI50 in the experiment with BT-549 breast is over 100 µM; with CCRF-CEM leukemia, 2.75 µM; in the experiment on NCI/ADR-RES ovarian it was 0.0656 µM. The TGI in the experiment on BT-549 breast, in the experiment with CCRF-CEM leukemia and with NCI/ADR-RES ovarian was over 100 µM throughout.

`COc1cc(N=Nc2ccc(O)c3ncccc23)c2ncccc2c1`: the GI50 with BT-549 breast is 4.31 µM; in the experiment on CCRF-CEM leukemia, 0.459 µM; in the experiment with NCI/ADR-RES ovarian, 1.02 µM; with T-47D breast, 3.23 µM; in the experiment on TK-10 renal, 9.81 µM. Further, the TGI in the experiment on BT-549 breast is over 100 µM; in the experiment with CCRF-CEM leukemia, over 100 µM; in the experiment on NCI/ADR-RES ovarian, 15.5 µM; in the experiment on T-47D breast, over 100 µM; in the experiment with TK-10 renal, over 100 µM.

As for `O=C(Cc1ccc(F)c(Cl)c1)Nc1cc(C2(C(F)(F)F)CC2)nn1CC1CCCCC1`, the GI50 was 3.41 µM in the experiment on BT-549 breast; 4.72 µM with CCRF-CEM leukemia; 3.88 µM in the experiment with NCI/ADR-RES ovarian; 3.78 µM in the experiment on T-47D breast; 4.78 µM in the experiment on TK-10 renal. Also, the TGI was 14.7 µM in the experiment with BT-549 breast; over 15 µM with CCRF-CEM leukemia; over 15 µM with NCI/ADR-RES ovarian; 13.6 µM in the experiment with T-47D breast; over 15 µM in the experiment with TK-10 renal.

As for `N=c1c2c(-c3ccccc3)c(-c3ccccc3)n(Cc3ccccc3)c2ncn1C1CCC(O)CC1` (configuration not stated), the GI50 in the experiment with BT-549 breast was 2.55 µM; with CCRF-CEM leukemia, 0.321 µM; in the experiment on NCI/ADR-RES ovarian, 0.717 µM; with T-47D breast, 0.911 µM; in the experiment with TK-10 renal, 0.814 µM. In addition, the TGI with BT-549 breast was 9.85 µM; in the experiment on CCRF-CEM leukemia it was 9.25 µM; in the experiment with NCI/ADR-RES ovarian it was 18.4 µM; in the experiment on T-47D breast it was 18.3 µM; in the experiment on TK-10 renal, 8.96 µM.

As for `O=c1oc2ccc(-c3ccc(F)cc3F)cc2c(=O)n1-c1cccc(C(F)(F)F)c1`, the GI50 was 0.605 µM in the experiment on BT-549 breast; 2.42 µM in the experiment with CCRF-CEM leukemia; 2.2 µM in the experiment with NCI/ADR-RES ovarian; 0.317 µM in the experiment on T-47D breast; 3.52 µM with TK-10 renal. Moreover, the TGI with BT-549 breast is 3.7 µM; with CCRF-CEM leukemia, 7.85 µM; in the experiment on NCI/ADR-RES ovarian it was 8.9 µM; in the experiment with T-47D breast, 3.29 µM; in the experiment on TK-10 renal, 15.8 µM.

Take `COc1ccc(C(=O)Nc2ccc(O)c(=O)cc2)cc1`: the TGI was over 100 µM in the experiment on BT-549 breast, 72.1 µM in the experiment on CCRF-CEM leukemia, over 100 µM in the experiment on NCI/ADR-RES ovarian and over 100 µM in the experiment with TK-10 renal.

As for `CN1CCN(c2ccc(Nc3cc(-c4cccc(-n5ccc6cc(C7CC7)cc(F)c6c5=O)c4CO)cn(C)c3=O)nc2)CC1`, the GI50 is 2.19 µM in the experiment on CCRF-CEM leukemia, 8.03 µM with NCI/ADR-RES ovarian, 3.04 µM in the experiment with T-47D breast and 3.69 µM in the experiment with TK-10 renal. Further, the TGI with CCRF-CEM leukemia was determined as 7.73 µM; with NCI/ADR-RES ovarian it was 33.4 µM; in the experiment with T-47D breast it was 15.9 µM; in the experiment on TK-10 renal, 14.3 µM.

On to `O=C(Nc1cccc(C(F)(F)F)c1)c1ccc(NC2=C(Cl)C(=O)N(Cc3ccc(Cl)cc3Cl)C2=O)cc1`, for which the GI50 was 2.2 µM in the experiment with BT-549 breast, 2.27 µM with CCRF-CEM leukemia, 2.8 µM with T-47D breast and 15.6 µM in the experiment on TK-10 renal. For the same compound, the TGI was 5.71 µM in the experiment with BT-549 breast, 5.46 µM in the experiment on CCRF-CEM leukemia, over 100 µM in the experiment on T-47D breast and 35.7 µM with TK-10 renal.

For the compound `COc1cnc2c(c1)C(=O)c1c-2n(CCCNC2=NCCS2)c(=O)c2cc([N+](=O)[O-])ccc12`, in the experiment with BT-549 breast, the GI50 is 0.0544 µM and the TGI amounted to 1.92 µM.
